Data from the CheMixHub viscosity set.
Several values for one entry are separate records, joined by “and”; a condition that tells them apart may be missing. Equal values may be shown once.

Test: xn = mol fraction of the nth substance listed

CNC(C)=O + COCCO
viscosity [mPa·s], 101.33 kPa
Details	308.15 K	313.15 K	318.15 K
x1 = 0.0301	1.362	1.242	1.136
x1 = 0.0501	1.393	1.27	1.16
x1 = 0.0752	1.431	1.304	1.191
x1 = 0.1036	1.476	1.343	1.227
x1 = 0.1301	1.515	1.378	1.259
x1 = 0.17	1.574	1.432	1.307
x1 = 0.2032	1.624	1.477	1.348
x1 = 0.2501	1.696	1.541	1.404
x1 = 0.302	1.776	1.613	1.468
x1 = 0.4032	1.94	1.758	1.596
x1 = 0.5037	2.114	1.91	1.73
x1 = 0.6033	2.308	2.074	1.876
x1 = 0.65	2.409	2.16	1.95
x1 = 0.7021	2.526	2.259	2.038
x1 = 0.7503	2.641	2.357	2.124
x1 = 0.8032	2.775	2.477	2.227
x1 = 0.8524	2.908	2.594	2.328
x1 = 0.9035	3.061	2.724	2.439
x1 = 0.9301	3.145	2.795	2.5
x1 = 0.9702	3.277	2.913	2.597

CC(C)CCO + COc1ccccc1
viscosity [mPa·s], 101.33 kPa
Details	x2 = 0.1002	x2 = 0.2	x2 = 0.3005	x2 = 0.3997	x2 = 0.5004	x2 = 0.6014	x2 = 0.7004	x2 = 0.8003	x2 = 0.9008
303.15 K	2.52	2.023	1.657	1.401	1.216	1.087	0.999	0.944	0.916
313.15 K	1.905	1.545	1.283	1.101	0.974	0.893	0.843	0.816	0.801
323.15 K	1.484	1.224	1.036	0.908	0.823	0.769	0.735	0.715	0.701

CNC(C)=O + CS(C)=O
313 K, 101 kPa
Details	viscosity [mPa·s]
x2 = 0.0743	2.725
x2 = 0.177	2.42
x2 = 0.2759	2.198
x2 = 0.3801	2.01
x2 = 0.4764	1.888
x2 = 0.5737	1.78
x2 = 0.6725	1.696
x2 = 0.7647	1.626
x2 = 0.8734	1.567
x2 = 0.9723	1.522

CNCCO + CS(C)=O
viscosity [mPa·s], 101.3 kPa
Details	x1 = 0.1038	x1 = 0.2066	x1 = 0.3084	x1 = 0.4095	x1 = 0.5101	x1 = 0.6095	x1 = 0.7084	x1 = 0.8064	x1 = 0.9035
293.15 K	2.286	2.433	2.768	3.144	3.804	4.512	5.755	7.432	9.786
298.15 K	2.054	2.173	2.45	2.754	3.293	3.852	4.836	6.143	7.947
303.15 K	1.858	1.956	2.186	2.435	2.877	3.327	4.116	5.151	6.549
308.15 K	1.691	1.771	1.964	2.168	2.537	2.905	3.542	4.368	5.476
313.15 K	1.547	1.613	1.776	1.946	2.254	2.555	3.077	3.745	4.627
318.15 K	1.419	1.481	1.615	1.755	2.016	2.264	2.697	3.241	3.954
323.15 K	1.309	1.361	1.469	1.594	1.815	2.044	2.383	2.83	3.41

Oc1ccc(Cl)cc1 + C[N+](C)(C)CCO.[Cl-]
Details	viscosity
293.15 K, 101 kPa, x2 = 0.333	170.6 mPa·s
298.15 K, 101 kPa, x2 = 0.333	123.2 mPa·s
298.15 K, 101.33 kPa, x1 = 0.7	180.2 mPa·s
298.15 K, 101.33 kPa, x1 = 0.8	108.2 mPa·s and 77.89 mPa·s and 66.12 mPa·s
298.15 K, 101.33 kPa, x1 = 0.9	61.06 mPa·s
303.15 K, 101 kPa, x2 = 0.333	92.75 mPa·s
308.15 K, 101 kPa, x2 = 0.333	71.68 mPa·s
313.15 K, 101 kPa, x2 = 0.333	55.45 mPa·s
318.15 K, 101 kPa, x2 = 0.333	43.94 mPa·s
323.15 K, 101 kPa, x2 = 0.333	35.45 mPa·s

CNC(C)=O + Cc1cc(C)cc(C)c1
308.15 K, 101.33 kPa
Details	viscosity [mPa·s]
x1 = 0.0458	0.6101
x1 = 0.3137	1.08
x1 = 0.4362	1.342
x1 = 0.5467	1.621
x1 = 0.646	1.898
x1 = 0.7315	2.174
x1 = 0.8095	2.455
x1 = 0.8779	2.719
x2 = 0.0126	3.191

CCOCCO + Cc1ccc(C)cc1
viscosity [mPa·s], 101 kPa
Details	298.15 K	308.15 K
x1 = 0.0551	0.632	0.555
x1 = 0.1489	0.672	0.584
x1 = 0.2499	0.725	0.625
x1 = 0.3507	0.792	0.674
x1 = 0.4514	0.875	0.735
x1 = 0.5001	0.922	0.769
x1 = 0.5497	0.975	0.808
x1 = 0.6526	1.106	0.9
x1 = 0.7513	1.262	1.01
x1 = 0.8499	1.456	1.143
x1 = 0.9549	1.717	1.319

CCOCCO + Cc1cccc(C)c1
viscosity [mPa·s], 101 kPa
Details	298.15 K	308.15 K
x1 = 0.0531	0.608	0.521
x1 = 0.1513	0.663	0.566
x1 = 0.2482	0.727	0.618
x1 = 0.3528	0.809	0.682
x1 = 0.4512	0.9	0.752
x1 = 0.5053	0.957	0.795
x1 = 0.5473	1.006	0.831
x1 = 0.6494	1.14	0.928
x1 = 0.751	1.3	1.04
x1 = 0.8492	1.487	1.168
x1 = 0.9554	1.731	1.33

CC(CC(C)(C)C)CP(=O)(O)CC(C)CC(C)(C)C (stereo not given) + Cc1ccccc1
298.15 K, 101 kPa
Details	viscosity [mPa·s]
x1 = 0.0069	0.589
x1 = 0.0129	0.633
x1 = 0.0143	0.65
x2 = 0.1117	88.23
x2 = 0.2037	66.68
x2 = 0.3198	43.9
x2 = 0.4972	20.43
x2 = 0.6533	9.197
x2 = 0.7579	4.844
x2 = 0.7674	4.562
x2 = 0.8571	2.218
x2 = 0.8649	2.075
x2 = 0.9241	1.252
x2 = 0.9269	1.219
x2 = 0.9692	0.778

CCOCCO + Cc1ccccc1
viscosity [mPa·s], 101 kPa
Details	298.15 K	308.15 K
x1 = 0.056	0.576	0.517
x1 = 0.1494	0.627	0.554
x1 = 0.2493	0.69	0.601
x1 = 0.3539	0.771	0.66
x1 = 0.449	0.859	0.723
x1 = 0.5019	0.915	0.763
x1 = 0.5488	0.969	0.802
x1 = 0.6514	1.107	0.899
x1 = 0.7465	1.261	1.007
x1 = 0.8514	1.468	1.149
x1 = 0.9527	1.716	1.317

CNC(C)=O + Cc1ccccc1
308.15 K, 101.33 kPa
Details	viscosity [mPa·s]
x1 = 0.0366	0.4848
x1 = 0.1983	0.7283
x1 = 0.3436	1.012
x1 = 0.4518	1.26
x1 = 0.5799	1.582
x1 = 0.6965	1.936
x1 = 0.7868	2.28
x1 = 0.8882	2.718
x2 = 0.0175	3.188

CCOCCO + Cc1ccccc1C
viscosity [mPa·s], 101 kPa
Details	298.15 K	308.15 K
x1 = 0.0533	0.777	0.674
x1 = 0.1508	0.817	0.708
x1 = 0.2502	0.867	0.75
x1 = 0.3516	0.931	0.8
x1 = 0.4528	1.009	0.858
x1 = 0.5042	1.056	0.892
x1 = 0.553	1.104	0.926
x1 = 0.6472	1.211	1.001
x1 = 0.7494	1.353	1.096
x1 = 0.8486	1.52	1.204
x1 = 0.954	1.739	1.34

CCCCCCCCBr + ClC(Cl)(Cl)Cl
101 kPa
Details	viscosity [mPa·s]
293.15 K, x1 = 0.0483	0.9339
293.15 K, x1 = 0.0969	0.9701
293.15 K, x1 = 0.1945	1.037
293.15 K, x1 = 0.3916	1.173
293.15 K, x1 = 0.5916	1.295
293.15 K, x1 = 0.7943	1.404
303.55 K, x1 = 0.0608	0.87
303.55 K, x1 = 0.0978	0.893
303.55 K, x1 = 0.1964	0.955
303.55 K, x1 = 0.3775	1.08
303.55 K, x1 = 0.5801	1.18
303.55 K, x1 = 0.8407	1.307
313.65 K, x1 = 0.0482	0.7513
313.65 K, x1 = 0.0973	0.7763
313.65 K, x1 = 0.1952	0.8276
313.65 K, x1 = 0.3945	0.9359
313.65 K, x1 = 0.5771	1.022
313.65 K, x1 = 0.7616	1.097

CCOCCO + ClC(Cl)(Cl)Cl
viscosity [mPa·s], 100 kPa
Details	x2 = 0.0977	x2 = 0.1959	x2 = 0.2946	x2 = 0.3938	x2 = 0.4935	x2 = 0.5937	x2 = 0.6945	x2 = 0.7958	x2 = 0.8976
298.15 K	1.784	1.657	1.539	1.428	1.325	1.229	1.14	1.056	0.9785
303.15 K	1.572	1.47	1.373	1.283	1.197	1.118	1.043	0.9725	0.9067
308.15 K	1.391	1.308	1.23	1.155	1.085	1.019	0.9566	0.8976	0.8421
313.15 K	1.236	1.168	1.105	1.044	0.9864	0.9318	0.8798	0.8306	0.7838
